Experimental data published in patent US11000033B2, “Ketone or oxime compound, and herbicide” (NISSAN CHEMICAL CORPORATION, priority 2014, dated 2021).

What was measured:
[1] = test system: Echinochloa oryzacola Vasing.; assay: Test Example 1: herbicidal activity, application before weed generation in submerged conditions (symbol A); assay type: in vivo; conditions: application herbicide amount 320 g/ha
Outline: (§1)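 Greenhouse growth at 25–30 °C lasted 3 weeks after treatment, when each weed was graded 0–5 by herbicidal ratio. Treatment was a diluted emulsion applied to the water surface of 4 cm-submerged alluvial soil on the sowing day.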

Monochoria vaginalis = assay: Test Example 1: herbicidal activity, application before weed generation in submerged conditions (symbol C); assay type: in vivo; conditions: application herbicide amount 320 g/ha
Outline: as §1

[2] = test system: Echinochloa oryzacola Vasing.; assay: Test Example 2: herbicidal activity, application during weed generation in submerged conditions (symbol A); assay type: in vivo; conditions: Table 23; application herbicide amount 320 g/ha; grade 0-5 by criteria of Test Example 1
Outline: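 Submerged alluvial soil (4 cm) sown with mixed seed; greenhouse 25–30° C. 1–2 leaf: diluted emulsion onto water surface, preset dose. Visual score, 3 wk.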

Digitaria ciliaris = assay: Test Example 4: herbicidal effect by soil treatment (symbol F); assay type: in vivo; conditions: application herbicide amount 320 g/ha
Outline: (§2)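 Seeds were sown in sterilized diluvial soil, covered with about 1.5 cm of soil, and the soil surface was sprayed with a water-diluted emulsion of the compound at a predetermined rate. Plants grew in a greenhouse at 25° C. to 30° C.; effects were scored visually 3 weeks after application.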

Veronica persica [3] = assay: Test Example 4: herbicidal effect by soil treatment (symbol R); assay type: in vivo; conditions: application herbicide amount 320 g/ha
Outline: as §2

Avena fatua = assay: Test Example 5: herbicidal effect by foliage application, plastic box (symbol I); assay type: in vivo; conditions: 320 g/ha, 3 weeks after application
Outline: (§3)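 Emulsion formulation, diluted with water to the intended rate, was applied uniformly to leaves by small sprayer. Recipients were 14-day greenhouse-grown seedlings (25° C. to 30° C.). Assessment followed at 3 weeks.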

Lolium multiflorum Lam. = assay: Test Example 5: herbicidal effect by foliage application, plastic box (symbol K); assay type: in vivo; conditions: 320 g/ha, 3 weeks after application
Outline: as §3

Veronica persica [4] = assay: Test Example 5: herbicidal effect by foliage application, plastic box (symbol R); assay type: in vivo; conditions: 320 g/ha, 3 weeks after application
Outline: as §3

corn = assay: Test Example 5: effect on crop by foliage application, plastic box (symbol c); assay type: in vivo; conditions: 320 g/ha, 3 weeks after application
Outline: (§4)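 In a plastic box 7 cm deep filled with sterilized diluvial soil, seeds of crops and weeds such as Digitaria ciliaris, Avena fatua and Amaranthus retroflexus are sown in spots and covered with about 1.5 cm of soil before greenhouse growth at 25–30° C.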

beet = assay: Test Example 5: effect on crop by foliage application, plastic box (symbol f); assay type: in vivo; conditions: 320 g/ha, 3 weeks after application
Outline: as §4

rapeseed = assay: Test Example 5: effect on crop by foliage application, plastic box (symbol g); assay type: in vivo; conditions: 320 g/ha, 3 weeks after application
Outline: as §4

CON=C(C)CC1CC(O)=C(c2c(C)cc(C3CC3)cc2C)C1=O (stereo not drawn) [6-050]
Herbicidal effect grade, A: Echinochloa oryzacola Vasing. [1]: 3 (Herbicidal ratio of 40% or higher and lower than 70%) | Herbicidal effect grade, C: Monochoria vaginalis (Monochoria vaginalis): 0 (Herbicidal ratio of 5% or lower (almost no effect)) | Herbicidal effect grade, A: Echinochloa oryzacola Vasing. [2]: 3 (Herbicidal ratio of 40% or higher and lower than 70%) | F: Digitaria ciliaris, herbicidal effect grade (Digitaria ciliaris): 5 (Herbicidal ratio of 90% or more (almost completely withered)) | R: Veronica persica, herbicidal effect grade (Veronica persica [3]): 0 (Herbicidal ratio of 5% or lower (almost no effect)) | I: Avena fatua, herbicidal effect grade (Avena fatua): 2 (Herbicidal ratio of 20% or higher and lower than 40%) | K: Lolium multiflorum Lam., herbicidal effect grade (Lolium multiflorum Lam.): 5 (Herbicidal ratio of 90% or more (almost completely withered)) | R: Veronica persica, herbicidal effect grade (Veronica persica [4]): 2 (Herbicidal ratio of 20% or higher and lower than 40%) | c: corn, effect on crop grade (corn): 4 (Herbicidal ratio of 70% or higher and lower than 90%) | f: beet, effect on crop grade (beet): 2 (Herbicidal ratio of 20% or higher and lower than 40%) | g: rapeseed, effect on crop grade (rapeseed): 5 (Herbicidal ratio of 90% or more (almost completely withered)) | melting point: 170 to 178 °C

CON=C(C)CC1CC(O)=C(c2c(C)cc(OC)cc2C)C1=O (stereo not drawn) [6-055]
Herbicidal effect grade, A: Echinochloa oryzacola Vasing. [1]: 4 (Herbicidal ratio of 70% or higher and lower than 90%) | Herbicidal effect grade, C: Monochoria vaginalis (Monochoria vaginalis): 0 (Herbicidal ratio of 5% or lower (almost no effect)) | Herbicidal effect grade, A: Echinochloa oryzacola Vasing. [2]: 5 (Herbicidal ratio of 90% or more (almost completely withered)) | F: Digitaria ciliaris, herbicidal effect grade (Digitaria ciliaris): 5 (Herbicidal ratio of 90% or more (almost completely withered)) | R: Veronica persica, herbicidal effect grade (Veronica persica [3]): 0 (Herbicidal ratio of 5% or lower (almost no effect)) | I: Avena fatua, herbicidal effect (criteria of Test Example 1) (Avena fatua): 5 (Herbicidal ratio of 90% or more (almost completely withered)) | K: Lolium multiflorum Lam., herbicidal effect (criteria of Test Example 1) (Lolium multiflorum Lam.): 5 (Herbicidal ratio of 90% or more (almost completely withered)) | R: Veronica persica, herbicidal effect (criteria of Test Example 1) (Veronica persica [4]): 4 (Herbicidal ratio of 70% or higher and lower than 90%) | c: corn, effect on crop (criteria of Test Example 1) (corn): 5 (Herbicidal ratio of 90% or more (almost completely withered)) | f: beet, effect on crop (criteria of Test Example 1) (beet): 0 (Herbicidal ratio of 5% or lower (almost no effect)) | g: rapeseed, effect on crop (criteria of Test Example 1) (rapeseed): 5 (Herbicidal ratio of 90% or more (almost completely withered)) | melting point: 141 to 143 °C

CON=C(C)CC1CC(O)=C(c2c(C)cc(Br)cc2OC)C1=O (stereo not drawn) [6-076, 2-(4-bromo-2-methoxy-6-methylphenyl)-3-hydroxy-5-{2-(methoxyimino)propyl}cyclopent-2-enone]
Herbicidal effect grade, A: Echinochloa oryzacola Vasing. [1]: 5 (Herbicidal ratio of 90% or more (almost completely withered)) | Herbicidal effect grade, C: Monochoria vaginalis (Monochoria vaginalis): 2 (Herbicidal ratio of 20% or higher and lower than 40%) | Herbicidal effect grade, A: Echinochloa oryzacola Vasing. [2]: 5 (Herbicidal ratio of 90% or more (almost completely withered)) | F: Digitaria ciliaris, herbicidal effect grade (Digitaria ciliaris): 5 (Herbicidal ratio of 90% or more (almost completely withered)) | R: Veronica persica, herbicidal effect grade (Veronica persica [3]): 0 (Herbicidal ratio of 5% or lower (almost no effect)) | I: Avena fatua, herbicidal effect (criteria of Test Example 1) (Avena fatua): 5 (Herbicidal ratio of 90% or more (almost completely withered)) | K: Lolium multiflorum Lam., herbicidal effect (criteria of Test Example 1) (Lolium multiflorum Lam.): 5 (Herbicidal ratio of 90% or more (almost completely withered)) | R: Veronica persica, herbicidal effect (criteria of Test Example 1) (Veronica persica [4]): 2 (Herbicidal ratio of 20% or higher and lower than 40%) | c: corn, effect on crop (criteria of Test Example 1) (corn): 5 (Herbicidal ratio of 90% or more (almost completely withered)) | f: beet, effect on crop (criteria of Test Example 1) (beet): 0 (Herbicidal ratio of 5% or lower (almost no effect)) | g: rapeseed, effect on crop (criteria of Test Example 1) (rapeseed): 4 (Herbicidal ratio of 70% or higher and lower than 90%) | melting point: 150 to 153 °C

CON=C(C)CC1CC(O)=C(c2c(C)cc(-c3ccccc3)cc2OC)C1=O (stereo not drawn) [6-099]
Herbicidal effect grade, A: Echinochloa oryzacola Vasing. [1]: 5 (Herbicidal ratio of 90% or more (almost completely withered)) | Herbicidal effect grade, C: Monochoria vaginalis (Monochoria vaginalis): 5 (Herbicidal ratio of 90% or more (almost completely withered)) | Herbicidal effect grade, A: Echinochloa oryzacola Vasing. [2]: 5 (Herbicidal ratio of 90% or more (almost completely withered)) | Herbicidal effect grade, F: Digitaria ciliaris (Digitaria ciliaris): 5 (Herbicidal ratio of 90% or more (almost completely withered)) | Herbicidal effect grade, R: Veronica persica (Veronica persica [3]): 4 (Herbicidal ratio of 70% or higher and lower than 90%) | I: Avena fatua, herbicidal effect (criteria of Test Example 1) (Avena fatua): 5 (Herbicidal ratio of 90% or more (almost completely withered)) | K: Lolium multiflorum Lam., herbicidal effect (criteria of Test Example 1) (Lolium multiflorum Lam.): 5 (Herbicidal ratio of 90% or more (almost completely withered)) | R: Veronica persica, herbicidal effect (criteria of Test Example 1) (Veronica persica [4]): 5 (Herbicidal ratio of 90% or more (almost completely withered)) | c: corn, effect on crop (criteria of Test Example 1) (corn): 5 (Herbicidal ratio of 90% or more (almost completely withered)) | f: beet, effect on crop (criteria of Test Example 1) (beet): 4 (Herbicidal ratio of 70% or higher and lower than 90%) | g: rapeseed, effect on crop (criteria of Test Example 1) (rapeseed): 5 (Herbicidal ratio of 90% or more (almost completely withered)) | melting point: 175 to 177 °C

CON=C(C)CC1CC(O)=C(c2c(OC)cc(C)cc2OC)C1=O (stereo not drawn) [6-103]
Herbicidal effect grade, A: Echinochloa oryzacola Vasing. [1]: 5 (Herbicidal ratio of 90% or more (almost completely withered)) | Herbicidal effect grade, C: Monochoria vaginalis (Monochoria vaginalis): 0 (Herbicidal ratio of 5% or lower (almost no effect)) | Herbicidal effect grade, A: Echinochloa oryzacola Vasing. [2]: 5 (Herbicidal ratio of 90% or more (almost completely withered)) | Herbicidal effect grade, F: Digitaria ciliaris (Digitaria ciliaris): 5 (Herbicidal ratio of 90% or more (almost completely withered)) | Herbicidal effect grade, R: Veronica persica (Veronica persica [3]): 0 (Herbicidal ratio of 5% or lower (almost no effect)) | I: Avena fatua, herbicidal effect (criteria of Test Example 1) (Avena fatua): 5 (Herbicidal ratio of 90% or more (almost completely withered)) | K: Lolium multiflorum Lam., herbicidal effect (criteria of Test Example 1) (Lolium multiflorum Lam.): 5 (Herbicidal ratio of 90% or more (almost completely withered)) | R: Veronica persica, herbicidal effect (criteria of Test Example 1) (Veronica persica [4]): 2 (Herbicidal ratio of 20% or higher and lower than 40%) | c: corn, effect on crop (criteria of Test Example 1) (corn): 5 (Herbicidal ratio of 90% or more (almost completely withered)) | f: beet, effect on crop (criteria of Test Example 1) (beet): 0 (Herbicidal ratio of 5% or lower (almost no effect)) | g: rapeseed, effect on crop (criteria of Test Example 1) (rapeseed): 4 (Herbicidal ratio of 70% or higher and lower than 90%) | melting point: 171 to 175 °C

CON=C(C)CC1CC(O)=C(c2c(F)cc(-c3ccccc3)cc2OC)C1=O (stereo not drawn) [6-107]
Herbicidal effect grade, A: Echinochloa oryzacola Vasing. [1]: 5 (Herbicidal ratio of 90% or more (almost completely withered)) | Herbicidal effect grade, C: Monochoria vaginalis (Monochoria vaginalis): 5 (Herbicidal ratio of 90% or more (almost completely withered)) | Herbicidal effect grade, A: Echinochloa oryzacola Vasing. [2]: 5 (Herbicidal ratio of 90% or more (almost completely withered)) | Herbicidal effect grade, F: Digitaria ciliaris (Digitaria ciliaris): 5 (Herbicidal ratio of 90% or more (almost completely withered)) | Herbicidal effect grade, R: Veronica persica (Veronica persica [3]): 4 (Herbicidal ratio of 70% or higher and lower than 90%) | I: Avena fatua, herbicidal effect (criteria of Test Example 1) (Avena fatua): 5 (Herbicidal ratio of 90% or more (almost completely withered)) | K: Lolium multiflorum Lam., herbicidal effect (criteria of Test Example 1) (Lolium multiflorum Lam.): 5 (Herbicidal ratio of 90% or more (almost completely withered)) | R: Veronica persica, herbicidal effect (criteria of Test Example 1) (Veronica persica [4]): 4 (Herbicidal ratio of 70% or higher and lower than 90%) | c: corn, effect on crop (criteria of Test Example 1) (corn): 5 (Herbicidal ratio of 90% or more (almost completely withered)) | f: beet, effect on crop (criteria of Test Example 1) (beet): 2 (Herbicidal ratio of 20% or higher and lower than 40%) | g: rapeseed, effect on crop (criteria of Test Example 1) (rapeseed): 4 (Herbicidal ratio of 70% or higher and lower than 90%) | melting point: 175 to 177 °C
